{"source": "patent US12582631B2", "about": "“Methods of improving renal function” (Chinook Therapeutics, Inc., priority 2019, dated 2026)", "key": {"[1]": {"system": "IL-6 production in primary human renal mesangial cells (HRMCs)", "assay": "ET-1 induced IL-6 production in HRMCs (ELISA)", "type": "cell-based", "details": "for IC50: Homo sapiens, Mesangial cell, read-out: IC50, ET-1 stimulated IL-6 production"}, "[2]": {"system": "primary human renal mesangial cells (HRMCs)", "assay": "Proliferation (BrdU) of HRMCs stimulated with IgA-containing immune complexes from IgAN patients", "type": "cell-based", "details": "HRMCs treated with IgA containing serum fractions from healthy controls"}, "g-ddY mice": {"system": "g-ddY mice", "assay": "UACR (albuminuria) in g-ddY mouse model of IgA nephropathy", "type": "in vivo", "details": "approximately 5 days", "from_the_text": "The grouped ddY (g-ddY) mouse is a spontaneous model of early-onset IgA nephropathy characterized by IgA immune complex deposition in the mesangium of the kidney, leading to significant proteinuria, glomerular hypercellularity, mesangioproliferative glomerular lesions, glomerular sclerosis and reduced kidney function, all hallmarks of human IgA nephropathy (J Am Soc Nephrol 23: 1364-1374, 2012). Consistent with human IgA nephropathy, the mesangial IgA deposits in the g-ddY mouse are also accompanied by deposition of IgG and complement C3."}, "[3]": {"system": "gene expression in kidney tissue of g-ddY mice", "assay": "RNA-seq differential gene expression in kidney tissue of g-ddY mice (edgeR)", "type": "in vivo, mouse", "procedure": "RNA isolation and sequencing libraries were generated using standard protocols. Sequencing was performed using an Illumina NextSeq500 using manufacturer's instructions with a read length of 75 bp and a read depth of 30 million. Raw data was assembled to FASTQ files. Following QC analysis, high quality sequencing reads (e.g., reads with a Phred quality score >36) were aligned to the mouse reference genome (GRCm38-mm10) using the default parameters of the align algorithm and transcript count tables of each library was generated using the default parameters of the featureCounts algorithm of the RSubread package (Liao […], Shi W, 2019). High quality sequencing reads mapped to 27,129 genes. Following additional QC of low count filtering (i.e. transcripts <10 counts across all samples), 16,207 genes were identified and used for further analysis. The remaining sequencing read counts of the included 16,207 genes were normalized to library size, log-transformed, and were quantified as counts per million (CPM). Select RNA-seq counts were validated using qPCR. Sequencing read counts (CPM) were used for identification of differential gene expression between specified populations using the quasi-likelihood methodology of the edgeR package. […] MA plots were generated using edgeR. Heatmaps and other plots were generated using the gplots and ggplot2 package."}, "[4]": {"system": "canonical signaling pathways in kidney tissue of g-ddY mice", "assay": "Ingenuity Pathway Analysis (IPA) of canonical pathways, g-ddY kidney RNA-seq", "type": "in vivo, mouse", "details": "30 mg/kg/day"}, "[5]": {"system": "hallmark gene sets in kidney tissue of g-ddY mice", "assay": "Gene Set Enrichment Analysis (GSEA) of hallmark gene sets, g-ddY kidney RNA-seq", "type": "in vivo, mouse"}, "ET-1 stimulated HRMC": {"system": "ET-1 stimulated HRMC", "assay": "Hallmark gene set enrichment in ET-1 stimulated HRMC treated with atrasentan", "type": "cell-based, human", "details": "atrasentan at 1 nM and 25 nM"}}, "note": "“Also recorded” adds a separate entry of the source. Read-outs that look alike come from different tables or passages of the source. Positions of bridges follow the written chain, without caps; N, C: chain ends. No end group written: not given here.", "data": [{"compound": "ET-1: endothelin 1 (ET-1), used at 10 ng/mL to stimulate primary human mesangial cells (CSCSSLMDKECVYFCHLDIIW; disulfide 1-15, 3-11; ends not checked; UniProt P05305 53-73, looked up)", "values": [{"measurement": "increase in IL-6 production", "setting": "[1]; HRMCs exposed to ET-1 over 48 hours", "value": "~6", "unit": "fold"}, {"measurement": "increase in IL-6 production", "setting": "[1]; HRMCs exposed to ET-1 over 72 hours", "value": "~2.2", "unit": "fold"}]}, {"compound": "CCCCN(CCCC)C(=O)CN1C[C@H](c2ccc3c(c2)OCO3)[C@@H](C(=O)O)[C@@H]1c1ccc(OC)cc1", "note": "[atrasentan, (2R,3R,4S)-4-(1,3-benzodioxol-5-yl)-1-[2-(dibutylamino)-2-oxoethyl]-2-(4-methoxyphenyl)pyrrolidine-3-carboxylic acid]", "values": [{"measurement": "basal cell proliferation", "setting": "[2]", "value": "had no effect on basal cell proliferation"}, {"measurement": "IC50", "setting": "[1]; 48 h, 10 ng/mL ET-1, 48 hours", "value": "~1", "unit": "nM"}, {"measurement": "IC50", "setting": "[1]; 72 h, 10 ng/mL ET-1, 72 hours", "value": "~1", "unit": "nM"}, {"measurement": "reduction of UACR from baseline", "setting": "g-ddY mice; 20 mg/kg/day in drinking water", "value": "> 60", "unit": "%"}, {"measurement": "albuminuria compared to baseline (paired t-test)", "setting": "g-ddY mice; 20 mg/kg/day", "value": "reduced from baseline to a similar extent"}, {"measurement": "effect on UACR compared to control group (un-paired t-test)", "setting": "g-ddY mice; 20 mg/kg/day", "value": "statistically significant compared to the control group; also recorded: significantly reduced albuminuria"}, {"measurement": "reduction of UACR from baseline", "setting": "g-ddY mice; 30 mg/kg/day in drinking water", "value": "> 60", "unit": "%"}, {"measurement": "albuminuria compared to baseline (paired t-test)", "setting": "g-ddY mice; 30 mg/kg/day", "value": "reduced albuminuria from baseline"}, {"measurement": "effect on UACR compared to control group (un-paired t-test)", "setting": "g-ddY mice; 30 mg/kg/day", "value": "statistically significant compared to the control group; also recorded: significantly reduced albuminuria"}, {"measurement": "differentially expressed genes of the ET1 gene signature", "setting": "[3]; 10 mg/kg/day vs untreated control", "value": "Ccnd1, Ppara, Agt, Map2k2 and Hoxa9 were upregulated while Grk5, Mllt3, Klf2, Pparg, Hgf, Edn1, Fos, Ptgs2, and IL-1b were downregulated"}, {"measurement": "differentially expressed genes of the ET1 gene signature", "setting": "[3]; 20 mg/kg/day vs untreated control", "value": "Ccdn1, Cat, Ppara, Map2k2, Hoxa9, Agt, and Egfr were upregulated while Nfatc1, Grk5, Klf2, Cav1, Pparg, Itga5, Myc, Ednra, Sell, Hgf, Mmp2, Edn1, Syk, Fos, and IL-1b were downregulated"}, {"measurement": "Ednra and Ednrb gene expression", "setting": "[3]; 30 mg/kg/day", "value": "downregulated"}, {"measurement": "differentially expressed genes of the ET1 gene signature", "setting": "[3]; 30 mg/kg/day vs untreated control", "value": "upregulated genes Ccnd1, Agt, Cat, Map2k2, Hoxa9, and Ppara and downregulated genes Ednrb, Myc, Mllt3, Hdac7, Ednra, Itga5, Grk5, Pparg, Klf2, Hgf, Mmp2, Sell, Sphk1, Fos, Syk, Edn1, and IL-1b"}, {"measurement": "ET1 (End1) gene expression", "setting": "[3]; all three doses (10, 20, 30 mg/kg/day)", "value": "downregulated"}, {"measurement": "NF-κB signaling", "setting": "[4]", "value": "reduced NF-κB signaling"}, {"measurement": "PDGF signaling", "setting": "[4]", "value": "reduced PDGF signaling"}, {"measurement": "IL-6 signaling", "setting": "[5]; 30 mg/kg/day", "value": "reduced IL-6 signaling"}, {"measurement": "cell proliferation associated signaling (mitotic spindle and G2M checkpoint)", "setting": "[5]; 30 mg/kg/day", "value": "reduced cell proliferation associated signaling"}, {"measurement": "inflammatory response signaling", "setting": "[5]; 30 mg/kg/day", "value": "reduced inflammatory response signaling"}, {"measurement": "NES of hallmark signaling pathways (TNFα signaling via NF-κB, epithelial mesenchymal transition, inflammatory response, IL6-JAK-STAT3 signaling, mitotic spindle, G2M checkpoint)", "setting": "[5]; 10, 20, and 30 mg/kg/day, adjusted p-value <0.05", "value": "< −1.5"}, {"measurement": "enrichment of hallmark gene sets", "setting": "ET-1 stimulated HRMC", "value": "under-expression of hallmark gene sets"}]}]}
